Source: patent publication US10407712B2, “Methods, compositions and kits for high throughput kinase activity screening using mass spectrometry and stable isotopes” (President and Fellows of Harvard College, priority 2008, dated 2019)

What was measured:
HEK293 cell lysates = assay: KAYAK in vitro kinase assay, individual reactions, lysates of starved, insulin- or EGF-stimulated HEK293 cells; type: biochemical, human; details: for E: changed phosphorylation in EGF stimulated condition: EGF-stimulated compared to starved HEK293 cells
Protocol: For stimulation of HEK293 cells or HeLa lines, cells were treated with insulin (100 nM; 10-30 min) EGF (50 ng/ml; 10 min) or phorbol 12-myristate 13-acetate (PMA; 50 or 100 ng/ml; 10 -30 min) at 37° C. for the indicated times after overnight serum-starvation.
(§1) For cell lysis, the media were removed, and cells were washed with ice-cold phosphate-buffered saline (PBS) and lysed with ice-cold lysis buffer (10 mM K2HPO4 pH 7.5, 1 mM EDTA, 10 mM MgCl2, 50 mM β-glycerophosphate, 5 mM EGTA, 0.5% Nonidet P-40, 0.1% Brij 35, 0.1% deoxycholic acid, 1mM sodium orthovanadate, 1mM phenylmethyl-sulfonyl fluoride, 5 μg/ml leupeptin and 5 μg/ml pepstatin A). Lysates were centrifuged at 10,000 rpm for 10 min to remove cell debris, and clear supernatant was used for immunoblotting and in vitro kinase assays. Protein concentration was determined by Bradford assay (Biorad, Hercules, Calif.).
(§2) Peptides were synthesized, purified and quantified as described in Yu et al. 2009 Proc Natl Acad Sci USA 106: 11606-11611, hereby incorporated by reference herein in its entirety. Each substrate peptide (250 pmol) was mixed to a final concentration of 5 μM in the 50 μL reaction mixture. Alternatively, reactions were performed using 6 μg cell lysate aliquotes mixed to a final volume of 20 μl. Cell lysate or other kinase source was added to the substrate mixture in 25 mM Tris-Cl, pH 7.5, containing 5 mM ATP, 7.5 mM MgCl2, 0.2 mM EGTA, 7.5 mM β-glycerophosphate, 0.1 mM Na3VO4, and 0.1 mM DTT. The reaction was incubated at 25° C. for 60 min and then terminated by the addition of 100 μl of 1% trifluoroacetic acid (TFA) containing a known amount of an internal standard (typically 20 pmol). Alternatively, the reaction was incubated at 20° C. for 45 min before termination with TFA.
(§3) Forty-five individual in vitro kinase reaction mixtures were combined and desalted by using Sep-Pak C18 cartridge (Waters, Milford, Mass.). Phosphopeptides were enriched by immobilized metal ion chromatography (IMAC) with 20 μl of beads (Phos-Select iron affinity gel; Sigma, St. Louis, Mo.) and subsequently desalted by using Empore C18 solid phase extraction disks (3M, St. Paul, Minn.) as described previously.
(§4) Quantitation of the target peptide-internal standard ratios was performed by first constructing the extracted ion chromatogram for the most abundant charge state for each peptide using a ±10 ppm window. Chromatograms were integrated using Qual/Quan browser (Xcalibur 2.0.5, Thermo Fisher, San Jose, Calif.). Since the phosphorylated peptides generated from the in vitro kinase reactions were chemically identical to the internal standards, they were assumed to have the same ionization efficiency. Therefore, the amount of each phosphorylated peptide was calculated by direct ratio to the internal standard level.
(§5) To test substrate suitability in a multiplexed assay, the phosphorylation activities were measured using […] of each substrate peptide, 6 μg lysate, and 5 mM ATP in a plate format. Reactions proceeded for 60 minutes followed by acidification and the addition of isotope-labeled reference peptides. After pooling 45 samples, phosphopeptide enrichment was followed by liquid-chromatography (LC) separation and on-line peptide detection by high-resolution mass spectrometry.
The ability of the peptides to report specific changes in kinase activation after pathway stimulation was examined herein. Lysates from HEK293 cells were collected after insulin or EGF treatment and were compared to their activities in the serum-starved state using the KAYAK approach. Western blot analysis of lysates from cells in which the PI3K and MAPK pathways were activated, as indicated by elevated phospho-Akt and phospho-ERK1/2 levels, respectively, is shown in FIG. 1D. […]

recombinant RSK1 = target: T1, recombinant RSK1 (Homo sapiens, UniProt Q15418); assay: In vitro peptide phosphorylation by purified RSK; type: biochemical
T1 construct: 90 kDa ribosomal S6 kinases 1 (RSK1, 1-735); purchased Cell Signaling Technology (Danvers, Mass.)
Source text: Reaction mixture was supplemented with 0.1% BSA. Other conditions were the same as in FIG. 10A.
Purified human active kinases of Akt1 (full length), extracellular signal-regulated kinase 1 (ERK1, 1-379), mitogen-activated protein kinase kinase 1 (MEK1, 1-393), 90 kDa ribosomal S6 kinases 1 (RSK1, 1-735), cAMP-dependent protein kinase (PKA) catalytic subunit-α (PKA Cα, 1-351), protein kinase Cα (PKCα, full length), epidermal growth factor (EGF) receptor (EGFR, 672-1210), platelet-derived growth factor (PDGF) receptor α (PDGFRα, 550-1090), vascular endothelial growth factor (VEGF) receptor 1 (VEGFR1 784-1338), Src (full length), casein kinase 2 (CK2, full length), Aurora A (1-403), AMP-activated protein kinase α1β1γ1 (AMPK α1β1γ1, full length), glycogen synthase kinase-3α (GSK-3α, 1-483) and MAP/microtubule affinity-regulating kinase 1 (MARK 1, full length) were obtained from Cell Signaling Technology (Danvers, Mass.). Cdc2/cyclin B1 (full length) and insulin-like growth factor (IGF)-I receptor (IGFIR, 959-1367) were obtained from Upstate (Temecula, Calif.).
as §2, with “Each substrate peptide (250 pmol) was mixed to a final concentration of 5 μM in the 50 μL reaction mixture.” left out
It was observed that basal phosphorylation of these peptides was not affected by knockdown and likely was the result of remaining RSK isoforms or other basophilic kinases (FIG. 5C).

HeLa cell lysates = assay: KAYAK in vitro kinase assay, lysates of asynchronous, G1/S- or G2/M-arrested HeLa cells; type: biochemical, human; details: for G2/M: changed phosphorylation: G2/M phase compared to asynchronously growing HeLa cells; for G1/S: changed phosphorylation: G1/S phase compared to asynchronously growing HeLa cells
Protocol: For cell cycle examples, HeLa cells were synchronized by double thymidine block for G1/S-arrest and by 0.2 μg/ml nocodazole for G2/M-arrest as described (Dephoure et al. 2008 Proc Natl Acad Sci USA 105: 10762-10767). Synchronization was confirmed by flow cytometry.
as §1, §2, §3, §4, §5
In order to examine target peptides with cell-cycle-dependent phosphorylation, kinase activities in asynchronously growing HeLa cells were profiled and the profiles were compared with those of cells synchronized in G1/S and G2/M phase using a double-thymidine block and nocodazole arrest, respectively (FIG. 3B).

PI3K and MAPK pathways = assay: KAYAK profiling of cancer cell lines with or without gefitinib: PI3K and MAPK activity; type: cell-based, human
Protocol: MCF7 and MBA-MB231 cells were maintained in DMEM supplemented with 10% FBS. Sum159 cells were maintained in Ham's F12 media supplemented with 5% FBS, 5μg/ml hydrocortisone. MCF10A, MCF10A, ErbB2, MCF10A/IGFR, and MCF10A/H-Ras^G12V cells were generously provided by J. Brugge (Debnath et al. 2002 Cell 111: 29-40; Irie et al. 2005 J Cell Biol 171: 1023-1034; Reginato et al. 2003 Nat Cell Biol 5: 733-740) and were maintained in 50/50 DMEM/F12 media supplemented with 5% horse serum, 20 ng/ml EGF, 100 ng/ml cholera toxin, 10 μg/ml insulin, and 500 ng/ml hydrocortisone. Breast cancer cells were treated also with 1 μM of gefitinib (LC laboratories) for 24 h before lysis and KAYAK analysis. The mutation data was obtained from Wellcome Trust Sanger Institute Cancer Genome Project Web site (Hollestele et al. 2007 Mol Cancer Res 5:195-201).
as §2
In tumors, activating mutations are often found in core signaling pathways (McLendon et al. 2008 Nature 455: 1061-1068). […]. The cell lines were chosen to represent the highly heterogeneous nature of breast cancer.

T1 sequence (Q15418 whole entry): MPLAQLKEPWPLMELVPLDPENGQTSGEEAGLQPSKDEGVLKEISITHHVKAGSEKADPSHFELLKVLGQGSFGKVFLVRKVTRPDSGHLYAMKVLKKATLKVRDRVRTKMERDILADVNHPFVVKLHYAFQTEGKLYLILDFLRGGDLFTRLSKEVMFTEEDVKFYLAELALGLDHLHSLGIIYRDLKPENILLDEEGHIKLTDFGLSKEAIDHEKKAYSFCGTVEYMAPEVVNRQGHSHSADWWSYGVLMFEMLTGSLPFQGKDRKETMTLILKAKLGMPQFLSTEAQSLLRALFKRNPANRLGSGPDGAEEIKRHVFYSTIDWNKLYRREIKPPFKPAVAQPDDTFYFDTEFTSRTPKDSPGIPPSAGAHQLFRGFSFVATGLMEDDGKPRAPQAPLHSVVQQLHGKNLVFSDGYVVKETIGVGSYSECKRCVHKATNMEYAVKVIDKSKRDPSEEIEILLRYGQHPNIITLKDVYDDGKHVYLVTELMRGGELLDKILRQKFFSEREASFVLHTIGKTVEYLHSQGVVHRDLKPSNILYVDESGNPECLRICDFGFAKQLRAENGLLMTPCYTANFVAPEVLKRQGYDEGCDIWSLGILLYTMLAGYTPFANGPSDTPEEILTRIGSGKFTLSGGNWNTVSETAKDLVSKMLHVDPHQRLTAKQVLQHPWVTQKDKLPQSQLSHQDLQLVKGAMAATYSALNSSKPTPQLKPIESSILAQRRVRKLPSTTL

| Compound | E: changed phosphorylation in EGF stimulated condition (HEK293 cell lysates) | G2/M: changed phosphorylation (HeLa cell lysates) | G1/S: changed phosphorylation (HeLa cell lysates) | also measured |
| --- | --- | --- | --- | --- |
| PKRKVSSAEGPFR (The sequence was designed and synthesized) [B6] | + (A change of more +2 fold and −2 fold is indicated by “+” and “−”, respectively.) | − (A change of more +2 fold and −2 fold is indicated by “+” and “−”, respectively.) |  | increase in phosphorylation after EGF (HEK293 cell lysates; EGF-stimulated vs serum-starved HEK293 lysate): 3 fold; phosphorylation by recombinant RSK1 in vitro (recombinant RSK1): robustly phosphorylate |
| FKNIVTPRTPPFR (The sequence was designed and synthesized) [D10] |  | ++ (A change of more than +4 and −4 fold is indicated by “++” and “−−”, respectively.) |  |  |
| COc1cc2ncnc(Nc3ccc(F)c(Cl)c3)c2cc1OCCCN1CCOCC1 [gefitinib] |  |  |  | activation of MAPK after treatment (PI3K and MAPK pathways; HeLa cells, 1 μM): not to be affected; activity in PI3K and MAPK pathway after treatment (PI3K and MAPK pathways; MCF7, 1 μM, 24 h): decreased activity; MAPK activity after treatment (PI3K and MAPK pathways; MCF10A cells overexpressing RasV12, 1 μM, 24 h): gefitinib-resistance; PI3K and MAPK activity after treatment (PI3K and MAPK pathways; MCF10A/ErbB2, 1 μM, 24 h): strongly inhibited; PI3K and MAPK activity after treatment (PI3K and MAPK pathways; MCF10A/IGFR, 1 μM, 24 h): strongly inhibited; MAPK activity after treatment (PI3K and MAPK pathways; MDA-MB231 cells, 1 μM, 24 h): completely refractory; MAPK activity after treatment (PI3K and MAPK pathways; Sum159 cells, 1 μM, 24 h): some sensitivity; PI3K and MAPK activity after treatment (PI3K and MAPK pathways; normal MCF10A cells, 1 μM, 24 h): strongly inhibited |
| IPINGSPRTPPFR (The sequence was designed and synthesized) [B4] | + (A change of more +2 fold and −2 fold is indicated by “+” and “−”, respectively.) | ++ (A change of more than +4 and −4 fold is indicated by “++” and “−−”, respectively.) |  |  |
| VKRQSSTPSAPFR (The sequence was designed and synthesized) [B7] |  | −− (A change of more than +4 and −4 fold is indicated by “++” and “−−”, respectively.) | −− (A change of more than +4 and −4 fold is indicated by “++” and “−−”, respectively.) |  |
| NKRRGSVPILPFR (The sequence was designed and synthesized) [C11] | + (A change of more +2 fold and −2 fold is indicated by “+” and “−”, respectively.) |  |  | phosphorylation by recombinant RSK1 in vitro (recombinant RSK1): robustly phosphorylate |
| KKKRFSFKKSPFR (The sequence was designed and synthesized) [G10] |  |  |  | conversion of the substrate (HEK293 cell lysates; serum-starved HEK293 lysate, 100 μM peptide, 6 μg lysate, 60 min, highest activity peptide): 18% |
| LKLSPSPSSRPFR (The sequence was designed and synthesized) [B11] |  | ++ (A change of more than +4 and −4 fold is indicated by “++” and “−−”, respectively.) | + (A change of more +2 fold and −2 fold is indicated by “+” and “−”, respectively.) |  |
| PSTNSSPVLKPFR (The sequence was designed and synthesized) [A12] |  | + (A change of more +2 fold and −2 fold is indicated by “+” and “−”, respectively.) |  |  |
| NQDPVSPSLVPFR (The sequence was designed and synthesized) [B5] |  | − (A change of more +2 fold and −2 fold is indicated by “+” and “−”, respectively.) | −− (A change of more than +4 and −4 fold is indicated by “++” and “−−”, respectively.) |  |
| SKRRNSEFEIPFR (The sequence was designed and synthesized) [G5] | + (A change of more +2 fold and −2 fold is indicated by “+” and “−”, respectively.) |  |  | phosphorylation by recombinant RSK1 in vitro (recombinant RSK1): robustly phosphorylate |
| IPTGTTPQRKPFR (The sequence was designed and synthesized) [C2] |  | ++ (A change of more than +4 and −4 fold is indicated by “++” and “−−”, respectively.) |  | increase in phosphorylation in G2/M (HeLa cell lysates; G2/M (nocodazole-arrested) HeLa lysate vs asynchronously growing cells): 19 fold |
| NLLPLSPEEFPFR (The sequence was designed and synthesized) [D7] |  | −− (A change of more than +4 and −4 fold is indicated by “++” and “−−”, respectively.) | −− (A change of more than +4 and −4 fold is indicated by “++” and “−−”, respectively.) |  |
